Laboratory results: article PMC12044326 (Clinical Pharmacology in Drug Development, 2025)

How the values were obtained:
CYP3A4 = test system: CYP3A4; design: method as in PMID 15242978, PMID 9929500; conditions: cited from earlier work
in vitro = conditions: human, Caco-2

| Papp (in vitro) | SMILES | CYP3A4 inhibitor potency over ketoconazole (CYP3A4) |
| --- | --- | --- |
|  | CCC(C)n1ncn(-c2ccc(N3CCN(c4ccc(OCC5COC(Cn6cncn6)(c6ccc(Cl)cc6Cl)O5)cc4)CC3)cc2)c1=O (centres unmarked) [itraconazole] | ~10 fold |
| 27.8 ×10⁻⁶ cm/s | CC(C)NCC(O)COc1cccc2ccccc12 (centres unmarked) [propranolol, reference compound] |  |
